Assay results as given in PMC4747989, “Bio-conjugation of antioxidant peptide on surface-modified gold nanoparticles: a novel approach to enhance the radical scavenging property in cancer cell” (Cancer Nanotechnology, 2016).
Ends that are not written are not given here.

Columns and labels:
Y79 retinoblastoma cells = assay: Cytotoxicity (MTT) assay, Y79; assay type: cell-based; settings: 24 and 48 h, 10-100 µM
Experimental: (§1) Y79 retinoblastoma and MIOM1 cells were seeded at 5 × 10^3 cells/well in 96-well plates and incubated at 37 °C overnight. The cells were then treated with varying concentrations (10, 30, 60, and 100 µM) of Pep-A and Pep-B in a fresh medium and incubated for specific time periods (24 and 48 h). At the end of the incubation, 10 µl of MTT [3-(4, 5-dimethylthiazol-2-yl)-2, 5-diphenyltetrazolium bromide; 5 mg/ml] was added to the cells with fresh medium (100 µl) and incubated at 37 °C until formazan crystals were formed. The formazan crystals were dissolved in 100 µl of DMSO, and the reading was taken at 570 nm (BioTek, ELISA, USA). Cell viability was calculated as Test OD/Control OD × 100.
Cytotoxic effects of GNPs and Pep-A were evaluated by MTT assay as per the protocol described in “Cytotoxicity assay” section. Antioxidant effects of GNPs-Pep-A, bioconjugate were evaluated by measuring the cellular ROS and SOD enzyme activity by similar methods as described in “Measurement of intracellular ROS levels on peptide treatment using 2′, 7′ dichlorodihydrofluorescein (DCF) assay” and “SOD activity measurement” sections, respectively. […] Total RNA was isolated using Trizol, and concentration of RNA was quantified using a Nanodrop (Biospec-Nano,Shimadzu, Biotech, Japan). […] Quantification of target gene expression was performed in triplicate in a 20-µl reaction mixture containing 0.1 µg of cDNA, specific primers (Table 1), and SYBR green reagent in 96-well plates on a real-time PCR system (Applied Biosystems, Singapore). GAPDH and β actin were used as internal controls, and the detection was carried out by measuring the binding of fluorescence dye SYBR green to double-stranded DNA. After cycling, relative quantitation of the tested gene cDNA against the internal control was performed using the ΔCT method. The relative amount of gene-specific mRNA to housekeeping gene was calculated using 2^−ΔΔCt, where Ct, the number of cycles at which amplification reaches a threshold, is determined using SDS software version 1.3.

[1] = tested on: MIOM1 (Muller-glial) non-neoplastic cells; assay: Cytotoxicity (MTT) assay, MIOM1; assay type: cell-based, human; settings: 24 and 48 h, 10-100 µM
Experimental: as §1

Y79 cells [2] = assay: Peptide uptake by flow cytometry (FACS); assay type: cell-based; settings: 4 h; for FITC positive population in M2: Y79 RB cells, flow cytometry; for M1 population: Y79 cells, histogram statistic in text, in % (unit assumed)
Experimental: (§2) The Y79 cells were seeded on the lysine (0.01 mg/ml)-coated glass slide. The cells were cultured overnight and treated with different concentrations (50 or 100 µM) of FITC-tagged Pep-A for 4 h, for studying the localization and internalization of the peptide by fluorescence microscopy. The FITC-labeled peptide A molecules (molecular mass 771.2) were custom synthesized (CPS 1468-1, custom peptide synthesis, USV limited India) with ~95 % purity obtained by HPLC method. The GNPs and GNPs-Pep-A conjugates were doped with the R6G dye as described by Kalmodia et al., for the internalization study (Kalmodia et al. [2013]). The internalization of the peptide, R6G-doped GNPs and GNPs-Pep-A after 4 h was qualitatively detected by Zeiss LSM, 710 laser microscope supplied by Axio vision (Germany). […] Y79 cells were seeded at 2 × 10^5 cells/well in six-well plates and treated with 50 and 100 µM concentrations of Pep-A for 4 h. The cells were then spun at 1500 rpm for 5 min, washed with PBS buffer, and then resuspended in FACS buffer. The cells were then analyzed for uptake of the peptide using FACS Calibur (BD Biosciences, CA, USA) by means of CELL QUEST PRO software. The fluorescence of FITC-stained cells was excited with an argon laser at 488 nm, and the emissions were detected at 530 nm. The overlay graph and scattered plot were used to confirm the FITC positive cell population.

Y79 cells [3] = assay: Internalization by fluorescence microscopy; assay type: cell-based; settings: Y79 RB cells; FITC-labeled Pep-A, R6G dye-doped GNPs and GNPs-Pep-A; 4 h (method), 3 h (Fig. 5 legend)
Experimental: as §2

| Substance | cytotoxicity to Y79 cells (in words) (Y79 retinoblastoma cells) | cytotoxicity to non-cancerous MIO-M1 cells (in words) [1] | cytotoxicity to Y79 cells (in words) (Y79 retinoblastoma cells; listed as pep-A) | cytotoxicity to non-cancerous MIO-M1 cells (in words) ([1]; listed as pep-A) | uptake into the Y79 cells (in words) (Y79 cells [2]; FACS, 50 and 100 µM) | FITC positive population in M2 (Y79 cells [2]; 50 µM FITC-tagged Pep-A, Fig. 4b) [%] | FITC positive population in M2 (Y79 cells [2]; 100 µM FITC-tagged Pep-A, Fig. 4c) [%] | M1 population (Y79 cells [2]; 50 µM of Pep-A, control 99.99) | M1 population (Y79 cells [2]; second mention printed as 50 µM of Pep-A) | internalization by fluorescence microscopy (in words) (Y79 cells [3]) |
| --- | --- | --- | --- | --- | --- | --- | --- | --- | --- | --- |
| TRNYYVRAVL [Pep-B, Thr-Arg-Asn-Tyr-Tyr-Val-Arg-Ala-Val-Leu] | no cytotoxicity | no cytotoxicity | – | – | – | – | – | – | – | – |
| PHCKRM [Pep-A, Pro-His-Cys-Lys-Arg-Met] | no cytotoxicity | no cytotoxicity | no toxicity | no toxicity | concentration-dependent uptake | 99 | 99 | 99.97 | 99.95 | internalization |
